Test results reported in PubChem BioAssay (NCI).
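Tested at 5 concentrations; 48 h exposure; 96-well plates; endpoints linearly interpolated, else capped at highest concentration. Here, GI50 denotes the concentration required for 50% inhibition of growth. At the TGI there is no net growth.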

Key:
Test in all cases: NCI-60 cell line screen, 48 h
OVCAR-5 ovarian = system: OVCAR-5 ovarian
SK-MEL-5 melanoma = system: SK-MEL-5 melanoma
MDA-MB-435 = system: MDA-MB-435
MALME-3M melanoma = system: MALME-3M melanoma
IGROV1 ovarian = system: IGROV1 ovarian
SF-295 CNS = system: SF-295 CNS
HOP-62 NSCLC = system: HOP-62 NSCLC
SK-MEL-2 melanoma = system: SK-MEL-2 melanoma
SNB-75 CNS = system: SNB-75 CNS
PC-3 prostate = system: PC-3 prostate
SN12C renal = system: SN12C renal
HT29 colon = system: HT29 colon
NCI-H226 lung = system: NCI-H226 lung
NCI/ADR-RES ovarian = system: NCI/ADR-RES ovarian
A549 NSCLC = system: A549 NSCLC
MCF7 breast = system: MCF7 breast
KM12 colon = system: KM12 colon
786-0 renal = system: 786-0 renal
MDA-MB-468 breast = system: MDA-MB-468 breast
HCT-116 colon = system: HCT-116 colon
NCI-H522 lung = system: NCI-H522 lung
RPMI-8226 leukemia = system: RPMI-8226 leukemia
SK-MEL-28 melanoma = system: SK-MEL-28 melanoma
CAKI-1 renal = system: CAKI-1 renal
U251 CNS = system: U251 CNS
MDA-MB-231 breast = system: MDA-MB-231 breast
HL-60(TB) leukemia = system: HL-60(TB) leukemia
A498 renal = system: A498 renal
EKVX NSCLC = system: EKVX NSCLC
OVCAR-3 ovarian = system: OVCAR-3 ovarian
HS 578T breast = system: HS 578T breast
MOLT-4 leukemia = system: MOLT-4 leukemia
OVCAR-8 ovarian = system: OVCAR-8 ovarian
SF-539 CNS = system: SF-539 CNS
LOX IMVI melanoma = system: LOX IMVI melanoma
RXF 393 renal = system: RXF 393 renal
HCT-15 colon = system: HCT-15 colon
OVCAR-4 ovarian = system: OVCAR-4 ovarian
NCI-H23 lung = system: NCI-H23 lung
SNB-19 CNS = system: SNB-19 CNS
SR leukemia = system: SR leukemia
M14 melanoma = system: M14 melanoma
K-562 leukemia = system: K-562 leukemia
SW-620 colon = system: SW-620 colon
HCC-2998 colon = system: HCC-2998 colon
SF-268 CNS = system: SF-268 CNS
ACHN renal = system: ACHN renal
NCI-H460 lung = system: NCI-H460 lung
TK-10 renal = system: TK-10 renal
SK-OV-3 ovarian = system: SK-OV-3 ovarian
UACC-62 melanoma = system: UACC-62 melanoma
COLO 205 colon = system: COLO 205 colon
BT-549 breast = system: BT-549 breast
DU-145 prostate = system: DU-145 prostate
UO-31 renal = system: UO-31 renal
HOP-92 NSCLC = system: HOP-92 NSCLC
CCRF-CEM leukemia = system: CCRF-CEM leukemia

In the case of `CNc1nc2ccccc2n2c(-c3ccc(O)c(O)c3)cnc12`, the GI50 (OVCAR-5 ovarian) is reported as < 10 nM, the TGI (OVCAR-5 ovarian) is reported as 23300 nM and the GI50 (SK-MEL-5 melanoma) is reported as < 10 nM. For the same compound, the TGI (SK-MEL-5 melanoma) was 14.2 nM, the GI50 (MDA-MB-435) was < 10 nM and the TGI (MDA-MB-435) was 1290 nM. For the same compound, the GI50 (MALME-3M melanoma) was < 10 nM, the TGI (MALME-3M melanoma) was 19300 nM and the GI50 (IGROV1 ovarian) was < 10 nM. The TGI (IGROV1 ovarian) was 18900 nM, the GI50 (SF-295 CNS) was < 11 nM and the TGI (SF-295 CNS) was 1740 nM. For the same compound, the GI50 (HOP-62 NSCLC) was < 10 nM, the TGI (HOP-62 NSCLC) was 26100 nM and the GI50 (SK-MEL-2 melanoma) was < 10 nM. For the same compound, the TGI (SK-MEL-2 melanoma) was 5750 nM, the GI50 (SNB-75 CNS) was < 10 nM and the TGI (SNB-75 CNS) was 14800 nM. For the same compound, the GI50 (PC-3 prostate) was < 10 nM, the TGI (PC-3 prostate) was 25900 nM and the GI50 (SN12C renal) was < 10 nM. The TGI (SN12C renal) was 10700 nM, the GI50 (HT29 colon) was 36.7 nM and the TGI (HT29 colon) was 1640 nM. For the same compound, the GI50 (NCI-H226 lung) was 1410 nM, the TGI (NCI-H226 lung) was 37900 nM and the GI50 (NCI/ADR-RES ovarian) was < 10 nM. The TGI (NCI/ADR-RES ovarian) was < 10 nM, the GI50 (A549 NSCLC) was < 10 nM and the TGI (A549 NSCLC) was > 35000 nM. For the same compound, the GI50 (MCF7 breast) was < 10 nM, the TGI (MCF7 breast) was > 38500 nM and the GI50 (KM12 colon) was < 10 nM. The TGI (KM12 colon) was 26300 nM, the GI50 (786-0 renal) was 113 nM and the TGI (786-0 renal) was 21500 nM. For the same compound, the GI50 (MDA-MB-468 breast) was < 10 nM, the TGI (MDA-MB-468 breast) was < 10 nM and the GI50 (HCT-116 colon) was < 10 nM. For the same compound, the TGI (HCT-116 colon) was 963 nM, the GI50 (NCI-H522 lung) was < 10 nM and the TGI (NCI-H522 lung) was < 10 nM. For the same compound, the GI50 (RPMI-8226 leukemia) was < 10 nM, the TGI (RPMI-8226 leukemia) was 6600 nM and the GI50 (SK-MEL-28 melanoma) was < 10 nM. For the same compound, the TGI (SK-MEL-28 melanoma) was 23300 nM, the GI50 (CAKI-1 renal) was < 10 nM and the TGI (CAKI-1 renal) was 22200 nM. For the same compound, the GI50 (U251 CNS) was < 10 nM, the TGI (U251 CNS) was > 39200 nM and the GI50 (MDA-MB-231 breast) was < 10 nM. For the same compound, the TGI (MDA-MB-231 breast) was < 14.9 nM, the GI50 (HL-60(TB) leukemia) was < 10 nM and the TGI (HL-60(TB) leukemia) was < 10 nM. For the same compound, the GI50 (A498 renal) was 20700 nM, the TGI (A498 renal) was 61600 nM and the GI50 (EKVX NSCLC) was < 20.7 nM. For the same compound, the TGI (EKVX NSCLC) was 32700 nM, the GI50 (OVCAR-3 ovarian) was < 10 nM and the TGI (OVCAR-3 ovarian) was 4620 nM. For the same compound, the GI50 (HS 578T breast) was < 10 nM, the TGI (HS 578T breast) was 8130 nM and the GI50 (MOLT-4 leukemia) was < 10 nM. For the same compound, the TGI (MOLT-4 leukemia) was 18900 nM, the GI50 (OVCAR-8 ovarian) was < 10 nM and the TGI (OVCAR-8 ovarian) was 507 nM. The GI50 (SF-539 CNS) was < 10 nM, the TGI (SF-539 CNS) was < 10 nM and the GI50 (LOX IMVI melanoma) was < 10 nM. The TGI (LOX IMVI melanoma) was 13700 nM, the GI50 (RXF 393 renal) was < 10 nM and the TGI (RXF 393 renal) was 14800 nM. For the same compound, the GI50 (HCT-15 colon) was < 10 nM, the TGI (HCT-15 colon) was 31300 nM and the GI50 (OVCAR-4 ovarian) was 475 nM. For the same compound, the TGI (OVCAR-4 ovarian) was > 78800 nM, the GI50 (NCI-H23 lung) was < 10 nM and the TGI (NCI-H23 lung) was 9560 nM. For the same compound, the GI50 (SNB-19 CNS) was < 10 nM, the TGI (SNB-19 CNS) was 31100 nM and the GI50 (SR leukemia) was < 10 nM. The TGI (SR leukemia) was > 34000 nM, the GI50 (M14 melanoma) was < 10 nM and the TGI (M14 melanoma) was 2830 nM. The GI50 (K-562 leukemia) was < 10 nM, the TGI (K-562 leukemia) was > 100000 nM and the GI50 (SW-620 colon) was < 10 nM. The TGI (SW-620 colon) was > 69900 nM, the GI50 (HCC-2998 colon) was < 10 nM and the TGI (HCC-2998 colon) was 15000 nM. For the same compound, the GI50 (SF-268 CNS) was < 22.6 nM, the TGI (SF-268 CNS) was 54700 nM and the GI50 (ACHN renal) was < 10 nM. For the same compound, the TGI (ACHN renal) was 20900 nM, the GI50 (NCI-H460 lung) was < 10 nM and the TGI (NCI-H460 lung) was 10500 nM. The GI50 (TK-10 renal) was 7980 nM, the TGI (TK-10 renal) was 44300 nM and the GI50 (SK-OV-3 ovarian) was 191 nM. For the same compound, the TGI (SK-OV-3 ovarian) was 13600 nM, the GI50 (UACC-62 melanoma) was < 10 nM and the TGI (UACC-62 melanoma) was 5090 nM. For the same compound, the GI50 (COLO 205 colon) was 128 nM, the TGI (COLO 205 colon) was 1560 nM and the GI50 (BT-549 breast) was < 10 nM. For the same compound, the TGI (BT-549 breast) was 1160 nM, the GI50 (DU-145 prostate) was < 10 nM and the TGI (DU-145 prostate) was > 33900 nM. The GI50 (UO-31 renal) was < 10 nM, the TGI (UO-31 renal) was 15900 nM and the GI50 (HOP-92 NSCLC) was 170 nM. For the same compound, the TGI (HOP-92 NSCLC) was 10500 nM, the GI50 (CCRF-CEM leukemia) was < 10 nM and the TGI (CCRF-CEM leukemia) was 1770 nM.
`Cc1cc(C)cc(C(=O)Nc2cccc(-c3cn(-c4ccc(S(N)(=O)=O)cc4)nn3)c2)c1` was tested, and the GI50 (MOLT-4 leukemia) was 5580 nM, the TGI (MOLT-4 leukemia) was > 10000 nM and the GI50 (HCT-15 colon) was > 10000 nM. For the same compound, the TGI (HCT-15 colon) was > 10000 nM, the GI50 (SR leukemia) was 1830 nM and the TGI (SR leukemia) was > 10000 nM. For the same compound, the GI50 (K-562 leukemia) was 2920 nM and the TGI (K-562 leukemia) was > 10000 nM.
